# Reference: ChEMBL document CHEMBL6087462, “Cuminaldehyde Potentiates Antiproteolytic Peptide Efficacy via Parallel Pathways of Enhanced Inner Membrane-Damaging Activity and Inhibition of Bacterial Energy Metabolism” (J Med Chem, 2025)
# How the values were obtained:
# Pseudomonas aeruginosa = test: Antimicrobial activity against Pseudomonas aeruginosa ATCC 27853 assessed as reduction in microbial growth in presence of cuminaldehyde by CLSI based broth microdilution method; format: functional
# [1] = Synergistic antimicrobial activity against Salmonella enterica subsp. enterica serovar Pullorum ATCC 7913 assessed as fractional inhibitory concentration by checkerboard broth microdilution assay; format: functional
# Escherichia coli [2] = test: Synergistic antimicrobial activity against Escherichia coli 25922 assessed as fractional inhibitory concentration index in presence of citronellal by checkerboard broth microdilution assay; format: functional
# Enterococcus faecalis = test: Synergistic antimicrobial activity against Enterococcus faecalis 29212 assessed as fractional inhibitory concentration index in presence of perillaldehyde by checkerboard broth microdilution assay; format: functional
# [3] = Synergistic antimicrobial activity against Salmonella enterica subsp. enterica serovar Pullorum 7913 assessed as fractional inhibitory concentration index in presence of citral by checkerboard broth microdilution assay; format: functional
# [4] = Antimicrobial activity against Salmonella enterica subsp. enterica serovar Pullorum ATCC 7913 assessed as cuminaldehyde MIC by CLSI based broth microdilution method; format: functional
# Salmonella typhimurium = test: Synergistic antimicrobial activity against Salmonella typhimurium 7731 assessed as fractional inhibitory concentration index in presence of cuminaldehyde by checkerboard broth microdilution assay; format: functional, Salmonella enterica subsp. enterica serovar Typhimurium
# Escherichia coli [5] = test: Synergistic antimicrobial activity against Escherichia coli 078 assessed as fractional inhibitory concentration index in presence of citral by checkerboard broth microdilution assay; format: functional, 78
# Escherichia coli [6] = test: Synergistic antimicrobial activity against Escherichia coli UB1005 assessed as fractional inhibitory concentration index in presence of citronellal by checkerboard broth microdilution assay; format: functional
smiles,measurement,setting,value
CC[C@H](C)[C@H](NC(=O)[C@@H](NC(=O)[C@@H](CCCNC(=N)N)NC(=O)[C@H](C)NC(=O)[C@H](C)NC(=O)[C@@H](N)Cc1cccc2ccccc12)[C@@H](C)CC)C(=O)N[C@@H](CC(C)C)C(=O)N[C@H](CCCNC(=N)N)C(=O)N[C@@H](Cc1c[nH]c2ccccc12)C(=O)N[C@H](CCCNC(=N)N)C(=O)N[C@@H](Cc1ccccc1)C(=O)N[C@@H](CCCNC(=N)N)C(=O)O,MIC,Pseudomonas aeruginosa,2 µg/mL
same,FIC,[1],0.125
same,fractional inhibitory concentration index (FICI),Escherichia coli [2],0.25
same,fractional inhibitory concentration index (FICI),Enterococcus faecalis,0.625
same,fractional inhibitory concentration index (FICI),[3],0.25
same,MIC,[4],1020 µg/mL
same,fractional inhibitory concentration index (FICI),Salmonella typhimurium,0.125
same,fractional inhibitory concentration index (FICI),Escherichia coli [5],0.094
same,fractional inhibitory concentration index (FICI),Escherichia coli [6],0.266
